In patent publication US20230192617A1, “AZABICYCLIC(THIO)AMIDES AS FUNGICIDAL COMPOUNDS” (Bayer CropScience Aktiengesellschaft, priority 2020, published 2023):

Experiments:
Pyrenophora teres = assay: In vivo preventive test on Pyrenophora teres (net blotch on barley); conditions: 240 h, 500 ppm of active ingredient, preventive spray on barley, evaluated 10 days after inoculation, read-out: efficacy
Method in brief: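 Net blotch spores were sprayed onto barley leaves one day after foliar treatment with water-diluted DMSO/acetone/Tween 80 formulations (solvent-only controls). Plants were kept at 20° C: first 48 hours at 100% relative humidity, then 8 days at 70-80%.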

[1] = system: Colletotrichum lindemuthianum; assay: In vivo preventive test on Colletotrichum lindemuthianum (leaf spot on bean); conditions: 168 h, 500 ppm of active ingredient, preventive spray on bean, evaluated 7 days after inoculation, read-out: efficacy
Method in brief: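 Young bean plants sprayed with compound in DMSO/acetone/Tween 80 diluted in water; solvent-only controls. Inoculated 24 h later with C. lindemuthianum spore suspension, then kept 24 h at 20 °C/100% RH and 6 days at 20 °C/90% RH.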

Septoria tritici = assay: B-9. Septoria tritici in vitro cell test; assay type: cell-based; conditions: Zymoseptoria tritici, 168 h; 20 ppm of active ingredient; 7 days incubation; liquid culture, absorbance; read-out: efficacy (inhibition of fungal growth)
Method in brief: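 Compounds from DMSO stocks (final DMSO ≤1%) were added to liquid medium containing S. tritici spores to test inhibition of germination and mycelial growth. After 7 days, mycelium growth was read spectrometrically and inhibition derived from absorbance versus fungicide-free control wells.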

SMILES | pest or weed control at 500 ppm (Pyrenophora teres) [%] | pest or weed control at 500 ppm [1] [%] | inhibition at 20 ppm (Septoria tritici) [%]
O=C(NC[C@H](F)c1ccc(Cl)cc1Cl)c1c(Oc2cccc(C(F)(F)F)c2)cnc2ccoc12 (racemic) [I-067] | 80 to 89 | 90 to 100 | 70 to 79
O=C(NC[C@H](F)c1ccc(Cl)cc1Cl)c1c(Oc2cccc(C3CC3)c2F)nnc2ccccc12 (racemic) [I-072] | 90 to 100 | 90 to 100 | 90 to 100
Cc1ccc([C@@H](F)CNC(=O)c2c(Oc3cccc(C(F)(F)F)c3)nnc3ccccc23)cc1C (racemic) [I-084] | 90 to 100 | 90 to 100 | 90 to 100
Cc1ccc(CCNC(=O)c2c(Oc3cccc(C4CC4)c3F)nnc3ccccc23)c(C)c1 [I-070] | 90 to 100 | 90 to 100 | 90 to 100
Cc1ccc(C(F)(F)CNC(=O)c2c(Oc3cccc(C4CC4)c3F)nnc3ccccc23)c(C)c1 [I-071, 3-(3-cyclopropyl-2-fluoro-phenoxy)-N-[2-(2,4-dimethyl-phenyl)-2,2-difluoro-ethyl]cinnoline-4-carboxamide] | 90 to 100 | 90 to 100 | 80 to 89
O=C(NCC(F)c1ccc(Cl)cc1Cl)c1c(Oc2cccc(C(F)(F)F)c2)nnc2c1CCCC2 (stereo not drawn) [I-118] | 90 to 100 | 90 to 100 | 90 to 100
O=C(NCC(F)c1ccc(Cl)cc1Cl)c1c(Oc2cccc(C3CC3)c2)nnc2c1CCCC2 (stereo not drawn) [I-119, 3-(3-cyclopropylphenoxy)-N-[2-(2,4-dichlorophenyl)-2-fluoro-ethyl]-5,6,7,8-tetrahydrocinnoline-4-carboxamide] | 90 to 100 | 90 to 100 | 90 to 100
Cc1ccc(C(F)(F)CNC(=O)c2c(Oc3cccc(Cl)c3)nnc3c2CCCC3)c(C)c1 [I-121] | 90 to 100 | 90 to 100 | 90 to 100
Cc1ccc(C(F)CNC(=O)c2c(Oc3cccc(C(F)(F)F)c3)nnc3c2COCC3)c(C)c1 (stereo not drawn) [I-123] | 90 to 100 | 90 to 100 | 90 to 100
Cc1ccc(C(F)(F)CNC(=O)c2c(Oc3cccc(C(F)(F)F)c3)nnc3c2COCC3)c(Cl)c1 [I-124] | 80 to 89 | 90 to 100 | 90 to 100
O=C(NCC(F)c1ccc(Cl)cc1Cl)c1c(Oc2cccc(C(F)(F)F)c2)nnc2c1COCC2 (stereo not drawn) [I-126] | 70 to 79 | 90 to 100 | 90 to 100
Cc1cc(Br)ccc1C(F)(F)CNC(=O)c1c(Oc2cccc(C(F)(F)F)c2)nnc2c1COCC2 [I-127] | 70 to 79 | 90 to 100 | 90 to 100
Cc1ccc(C(F)(F)CNC(=O)c2c(Oc3cccc(Br)c3F)nnc3c2CCCC3)c(C)c1 [I-128] | 90 to 100 | 90 to 100 | 90 to 100
Cc1ccc(C(F)(F)CNC(=O)c2c(Oc3cccc(C(F)F)c3)nnc3c2CCCC3)c(C)c1 [I-129] | 90 to 100 | 90 to 100 | 90 to 100
Cc1ccc(C(F)(F)CNC(=O)c2c(Oc3cccc(Cl)c3F)nnc3c2CCCC3)c(C)c1 [I-130] | 90 to 100 | 90 to 100 | 90 to 100
Cc1ccc(C(F)(F)CNC(=O)c2c(Oc3cccc(C4CC4)c3F)nnc3c2CCCC3)c(C)c1 [I-131] | 90 to 100 | 90 to 100 | 90 to 100
Cc1ccc(C(F)(F)CNC(=O)c2c(Oc3cccc(C(F)(F)F)c3)nnc3c2CCC3)c(C)c1 [I-132] | 90 to 100 | 90 to 100 | 90 to 100
Cc1ccc(C(F)(F)CNC(=O)c2c(Oc3cccc(Cl)c3F)nnc3c2CCC3)c(C)c1 [I-133] | 90 to 100 | 90 to 100 | 90 to 100
Cc1ccc(C(F)(F)CNC(=O)c2c(Oc3cccc(C4CC4)c3F)nnc3c2CCC3)c(C)c1 [I-134] | 80 to 89 | 90 to 100 | 90 to 100
Cc1ccc(C(F)CNC(=O)c2c(Oc3cccc(Cl)c3F)nnc3c2CCCC3)c(C)c1 (stereo not drawn) [I-136] | 90 to 100 | 90 to 100 | 90 to 100
Cc1ccc(C(F)CNC(=O)c2c(Oc3cccc(C4CC4)c3F)nnc3c2CCCC3)c(C)c1 (stereo not drawn) [I-137] | 80 to 89 | 90 to 100 | 70 to 79
Cc1ccc(C(F)(F)CNC(=O)c2c(Oc3cccc(Cl)c3)nnc3c2CCCC3)c(Cl)c1 [I-139] | 80 to 89 | 90 to 100 | 90 to 100

SMILES | pest or weed control at 500 ppm (Pyrenophora teres) [%] | pest or weed control at 500 ppm [1] [%] | inhibition at 20 ppm (Septoria tritici) [%]
Cc1ccc(C(F)(F)CNC(=O)c2c(Oc3cccc(Cl)c3F)nnc3c2CCCC3)c(Cl)c1 [I-140, 3-(3-chloro-2-fluoro-phenoxy)-N-[2-(2-chloro-4-methyl-phenyl)-2,2-difluoro-ethyl]-5,6,7,8-tetrahydrocinnoline-4-carboxamide] | 90 to 100 | 90 to 100 | 90 to 100
Cc1ccc(C(F)(F)CNC(=O)c2c(Oc3cccc(C4CC4)c3F)nnc3c2CCCC3)c(Cl)c1 [I-141] | 90 to 100 | 90 to 100 | 90 to 100
Cc1ccc(C(F)(F)CNC(=O)c2c(Oc3cccc(C(F)(F)F)c3)nnc3c2CCC3)c(Cl)c1 [I-142] | 90 to 100 | 90 to 100 | 90 to 100
Cc1ccc(C(F)(F)CNC(=O)c2c(Oc3cccc(Cl)c3F)nnc3c2CCC3)c(Cl)c1 [I-143] | 90 to 100 | 90 to 100 | 90 to 100
Cc1ccc(C(F)(F)CNC(=O)c2c(Oc3cccc(C4CC4)c3F)nnc3c2CCC3)c(Cl)c1 [I-144] | 80 to 89 | 90 to 100 | 80 to 89
Cc1cc(Cl)ccc1C(F)(F)CNC(=O)c1c(Oc2cccc(C(F)(F)F)c2)nnc2c1CCCC2 [I-145] | 90 to 100 | 90 to 100 | 90 to 100
Cc1cc(Cl)ccc1C(F)(F)CNC(=O)c1c(Oc2cccc(Cl)c2)nnc2c1CCCC2 [I-146] | 80 to 89 | 90 to 100 | 90 to 100
Cc1cc(Cl)ccc1C(F)(F)CNC(=O)c1c(Oc2cccc(Cl)c2F)nnc2c1CCC2 [I-148] | 90 to 100 | 90 to 100 | 80 to 89
O=C(NCC(F)c1ccc(Cl)cc1Cl)c1c(Oc2cccc(Cl)c2F)nnc2c1CCCC2 (stereo not drawn) [I-149] | 90 to 100 | 90 to 100 | 90 to 100
Cc1cc(Br)ccc1C(F)(F)CNC(=O)c1c(Oc2cccc(C(F)F)c2)nnc2c1CCCC2 [I-150] | 90 to 100 | 90 to 100 | 90 to 100
Cc1cc(Br)ccc1C(F)(F)CNC(=O)c1c(Oc2cccc(Cl)c2)nnc2c1CCCC2 [I-151] | 80 to 89 | 90 to 100 | 90 to 100
Cc1cc(Br)ccc1C(F)(F)CNC(=O)c1c(Oc2cccc(Cl)c2F)nnc2c1CCCC2 [I-152] | 80 to 89 | 90 to 100 | 90 to 100
O=C(NCC(F)c1ccc(Cl)cc1Cl)c1c(Oc2cccc(C(F)(F)F)c2)nnc2c1CCC2 (stereo not drawn) [I-186] | 90 to 100 | 90 to 100 | 90 to 100
O=C(NCC(F)c1ccc(Cl)cc1Cl)c1c(Oc2cccc(Cl)c2F)nnc2c1CCC2 (stereo not drawn) [I-188] | 90 to 100 | 90 to 100 | 90 to 100
O=C(NCC(F)(F)c1ccc(Br)cc1Cl)c1c(Oc2cccc(C(F)(F)F)c2)nnc2c1CCC2 [I-212] | 90 to 100 | 90 to 100 | 90 to 100
O=C(NCC(F)(F)c1ccc(Br)cc1Cl)c1c(Oc2cccc(Cl)c2F)nnc2c1CCC2 [I-213] | 80 to 89 | 90 to 100 | 90 to 100
Cc1ccc(C(F)(F)CNC(=O)c2c(Oc3cccc(Br)c3)nnc3ccccc23)c(C)c1 [I-216] | 70 to 79 | 90 to 100 | 80 to 89
Cc1ccc(C(F)(F)CNC(=O)c2c(Oc3cccc(C(F)F)c3)cnc3ccccc23)c(C)c1 [I-220] | 70 to 79 | 80 to 89 | 90 to 100
Cc1cccc(Oc2cnc3ccccc3c2C(=O)NCC(F)(F)c2ccc(C)cc2C)c1 [I-222] | 80 to 89 | 70 to 79 | 80 to 89
Cc1ccc(C(F)(F)CNC(=O)c2c(Oc3cccc(Br)c3F)nnc3ccccc23)c(C)c1 [I-227] | 70 to 79 | 80 to 89 | 70 to 79
O=C(NCC(F)(F)c1ccc(Cl)cc1Cl)c1c(Oc2cccc(C(F)(F)F)c2)nnc2c1COCC2 [I-228] | 70 to 79 | 90 to 100 | 90 to 100
